Laboratory results taken from paper PMC6641755 (ACS Omega, 2017).

Columns and labels:
Assay type in all cases: binding
[1] = molecular target: Bruton's tyrosine kinase (Btk) kinase domain (Homo sapiens, UniProt Q06187); test: ITC titration
[2] = molecular target: BLK (Homo sapiens, UniProt P51451); test: KinomeScan
[3] = molecular target: T1, TYK2 (JH1domain-catalytic) (Homo sapiens, UniProt P29597); test: KinomeScan
T1 sequence (P29597 897-1176 limits assumed): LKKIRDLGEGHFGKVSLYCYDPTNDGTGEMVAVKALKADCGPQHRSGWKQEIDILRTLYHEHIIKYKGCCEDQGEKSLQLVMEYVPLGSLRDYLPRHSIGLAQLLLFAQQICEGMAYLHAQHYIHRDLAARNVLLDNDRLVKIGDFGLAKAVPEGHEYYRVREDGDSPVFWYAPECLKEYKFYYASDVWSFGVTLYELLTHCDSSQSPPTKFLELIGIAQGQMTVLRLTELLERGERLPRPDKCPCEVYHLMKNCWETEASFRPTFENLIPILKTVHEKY

Chain of BLK (P51451 2-505): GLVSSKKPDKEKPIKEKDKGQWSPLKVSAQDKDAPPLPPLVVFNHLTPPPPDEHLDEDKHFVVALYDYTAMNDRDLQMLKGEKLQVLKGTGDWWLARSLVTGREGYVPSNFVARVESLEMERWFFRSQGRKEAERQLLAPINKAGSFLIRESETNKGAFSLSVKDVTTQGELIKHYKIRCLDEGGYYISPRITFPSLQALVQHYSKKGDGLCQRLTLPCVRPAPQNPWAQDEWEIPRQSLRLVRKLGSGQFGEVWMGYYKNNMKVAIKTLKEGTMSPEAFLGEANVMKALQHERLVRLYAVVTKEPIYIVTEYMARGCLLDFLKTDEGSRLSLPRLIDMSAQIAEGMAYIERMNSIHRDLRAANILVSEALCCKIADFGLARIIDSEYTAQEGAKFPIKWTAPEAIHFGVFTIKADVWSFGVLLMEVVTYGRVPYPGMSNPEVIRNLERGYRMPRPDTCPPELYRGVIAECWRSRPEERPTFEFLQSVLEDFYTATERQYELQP
Chain of Bruton's tyrosine kinase (Btk) kinase domain (Q06187 387-569): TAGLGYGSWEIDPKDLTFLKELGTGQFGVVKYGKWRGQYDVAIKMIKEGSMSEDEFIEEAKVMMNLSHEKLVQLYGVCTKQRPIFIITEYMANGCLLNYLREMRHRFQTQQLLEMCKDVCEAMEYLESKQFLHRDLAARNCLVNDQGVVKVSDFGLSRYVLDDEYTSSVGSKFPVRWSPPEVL

Which Kd [1] does the source give for `c1nc2c(Nc3ccc4c(c3)OCCO4)nc(Nc3ccc4c(c3)OCCO4)nc2[nH]1` [L6, N2,N6-bis(2,3-dihydrobenzo[b][1,4]dioxin-6-yl)-9H-purine-2,6-diamine] here?
The Kd was 250 nM.

And the activity at 10 µM [2]?
The activity at 10 µM was 0.4%.

And the activity at 10 µM [3]?
The activity at 10 µM was 0.8%.
